Data as given in patent publication US20230085721A1, “PIGMENT COMPRISING RAPHANUS SATIVUS EXTRACT AND MONTMORILLONITE” (GIVAUDAN SA, priority 2020, published 2023).
Marks after values point to notes of the source that are not given here.

Test system: human normal keratinocytes (NHEKs)
Test: ROS production after oxidative stress (DCFH-DA method)
Assay type: cell-based
Conditions: 200 μM
Procedure: The anti-oxidant properties of Raphanus sativus L. root extract was evaluated using human normal keratinocytes (NHEKs) by quantification of Reactive Oxygen Species (ROS) production after oxidative stress exposure according to the dichlorodihydrofluorescein diacetate (DCFH-DA; “Dichloro-dihydro-fluorescein diacetate (DCFH-DA) assay: a quantitative method for oxidative stress assessment of nanoparticle-treated cells”. Aranda et al. Toxicol In Vitro. 2013, 27(2):954-63.) method. In contact with cells, DCFH-DA is cleaved inside the cell to DCFH which is able to interact with reactive oxygen species (ROS) during oxidative stress leading to fluorescence emission. Consequently, the fluorescence emitted is correlated to the antioxidant property of the tested compound. The cell culture was done on primary cells freshly isolated from biopsies. Normal Human Epidermal Keratinocytes (NHEKs) were seeded in a black plate with a glass bottom at 20′000 cells per well in 96-wells plates with a type I collagen pre-coating in quadruplicate. The cells were incubated for 24 hours in complete medium (Epilife medium supplemented with HKGS) at 37° C. with 5% CO2. […] Finally, the emitted fluorescence was measured in darkness by excitation wavelength at 488 nm and emission wavelength at 525 nm with microplate reader (TECAN). […]

Oc1ccc(C=Cc2cc(O)cc(O)c2)cc1 [Resveratrol]
Comparison to oxidative stress, no active (5 mM TBP, p < 0.001): −76%***
Mean relative to TBP condition (ROS, NHEKs, oxidative stress 5 mM TBP): 24.0%
